According to BindingDB's records for doi:10.1021/jm00093a008 (Technical University of Denmark, 1992):

How the values were obtained:
[1] = Concentration inhibiting Clostridium histolyticum collagenase.
[2] = as above; remark: listed apart in the source

Row | IC50 [2] | SMILES | IC50 [1]
1 | 370 nM | COC1C(O[C@@H]2c3c(cc4c(c3O)C(=O)c3c(O)cccc3C4=O)C(=O)[C@@](C)(O)[C@H]2OC)OC(C)C(O)C1O (stereo not given in full) | 
2 | 3000 nM | COC1C(O[C@@H]2c3c(cc4c(c3O)C(=O)c3c(O)cccc3C4=O)C(=O)[C@](C)(O)[C@H]2OC)OC(C)C(O)C1O (stereo not given in full) | 
3 | 17000 nM | COC1C(O[C@@H]2c3c(cc4c(c3O)C(=O)c3c(O)cccc3C4=O)C(=O)[C@@](C)(O)[C@H]2OC)OC(C)C(O)C1O[Si](C)(C)C(C)(C)C (stereo not given in full) | 
4 | > 100000 nM | COC1C(O[C@@H]2c3c(cc4c(c3O)C(=O)c3c(O)c(N(C)C)cc(N(C)C)c3C4=O)C(=O)[C@@](C)(O)[C@H]2OC)OC(C)C(O)C1O (stereo not given in full) | 

The next lines start with the molecule.

Row | SMILES | IC50 [2] | IC50 [1]
5 | CC[C@@]1(O)C[C@H](O[C@H]2C[C@H](N(C)C)[C@H](O[C@H]3C[C@H](O)[C@H](O[C@H]4CCC(=O)[C@H](C)O4)[C@H](C)O3)[C@H](C)O2)c2c(cc3c(c2O)C(=O)c2c(O)cccc2C3=O)[C@H]1C(=O)OC [ACLACINOMYCIN A] |  | 9900 nM
6 | CO[C@H]1[C@H](O)c2c(cc3c(c2O)C(=O)c2c(O)cccc2C3=O)C(=O)[C@@]1(C)O | 19000 nM | 
7 | CCOP(=O)(OCC)O[C@]1(C)C(=O)c2cc3c(c(O)c2[C@@H](OC2OC(C)C(O)C(O)C2OC)[C@@H]1OC)C(=O)c1c(O)cccc1C3=O (stereo not given in full) | 220 nM | 
8 | COC1C(O[C@@H]2c3c(cc4c(c3O)C(=O)c3c(ccc(N(C)C)c3O)C4=O)C(=O)[C@@](C)(O)[C@H]2OC)OC(C)C(O)C1O (stereo not given in full) | 2000 nM | 
9 | COC1C(O[C@@H]2c3c(cc4c(c3O)C(=O)c3c(O)cccc3C4=O)C(=O)[C@@](C)(O)[C@H]2OC)OC(C)C(OC(C)=O)C1OC(C)=O (stereo not given in full) | > 100000 nM | 
10 | COC1C(C)OC(O[C@@H]2c3c(cc4c(c3O)C(=O)c3c(O)cccc3C4=O)C(=O)[C@@](C)(O)[C@H]2OC)C(OC)C1OC (stereo not given in full) | 670 nM | 
